Laboratory results as given in DBAASP.
Values after ≈ are worked out from the molar mass of the structure shown. Each block holds one compound with its values, some of them ahead of it.

Assays:
Experiment in all cases: ≥ marks a high value that may be exact or a test limit, other limits are often not marked, values filed in µg/mL are converted to µM
[1] = system: Staphylococcus aureus ATCC 6538
[2] = system: Pseudomonas aeruginosa ATCC 9027
[3] = system: Acinetobacter baumannii ATCC 19606
[4] = system: Candida albicans ATCC 2002
[5] = system: Escherichia coli ATCC 25922
[6] = system: Staphylococcus aureus ATCC 25923
Bacillus subtilis = system: Bacillus subtilis
Escherichia coli = system: Escherichia coli
Staphylococcus aureus = system: Staphylococcus aureus
Acinetobacter baumannii = system: Acinetobacter baumannii
[7] = system: Klebsiella pneumoniae ATCC 700603
[8] = system: Escherichia coli ATCC 25726
[9] = system: Pseudomonas aeruginosa ATCC 27853
[10] = system: Pseudomonas aeruginosa PAO1
[11] = system: Escherichia coli DH5alpha

SMILES: CC(C)C[C@H](NC(=O)[C@H](C)NC(=O)[C@H](Cc1ccccc1)NC(=O)[C@H](CCCCN)NC(=O)[C@H](CCCCN)NC(=O)[C@H](C)NC(=O)[C@H](CC(C)C)NC(=O)[C@H](CCCCN)NC(=O)[C@H](C)NC(=O)[C@H](CC(C)C)NC(=O)[C@H](CC(C)C)NC(=O)[C@H](CCCCN)NC(=O)[C@H](C)NC(=O)[C@@H](N)Cc1ccccc1)C(N)=O [FAKLLAKLAKKFAL]
MIC [1]: 32 µM (≈ 50 µg/mL)
MIC [2]: 128 µM (≈ 200 µg/mL)

SMILES: CC[C@H](C)[C@H](NC(=O)CNC(=O)[C@H](CCCCN)NC(=O)[C@H](CC(C)C)NC(=O)[C@@H](N)Cc1ccccc1)C(=O)N[C@H](C(=O)N[C@@H](CC(=O)O)C(=O)N[C@H](C(=O)N[C@H](C(=O)N[C@@H](CO)C(=O)N[C@@H](CC(N)=O)C(=O)N[C@@H](Cc1c[nH]c2ccccc12)C(=O)N[C@@H](CC(C)C)C(N)=O)C(C)C)[C@@H](C)O)[C@@H](C)CC [FLKGIIDTVSNWL]
MIC [3]: > 26.6 µM

SMILES: CC[C@H](C)[C@H](NC(=O)[C@H](CO)NC(=O)[C@H](C)NC(=O)[C@@H]1CCCN1C(=O)[C@H](CC(C)C)NC(=O)CN)C(=O)N[C@@H](CO)C(=O)N[C@@H](Cc1c[nH]c2ccccc12)C(=O)N[C@H](C(=O)N[C@@H](CCCCN)C(=O)N[C@@H](CCCN=C(N)N)C(=O)N[C@@H](CCCCN)C(=O)N[C@@H](CCCN=C(N)N)C(=O)N[C@@H](CCC(N)=O)C(=O)N[C@@H](CCC(N)=O)C(N)=O)[C@@H](C)CC [GLPASISWIKRKRQQ]
MIC (Bacillus subtilis): 17.6 µM (≈ 31.2 µg/mL)
MIC (Escherichia coli): > 141 µM
MIC (Staphylococcus aureus): 141 µM (≈ 250 µg/mL)

SMILES: CC(C)C[C@H](NC(=O)[C@@H]1CCCN1C(=O)CNC(=O)[C@@H]1CCCN1C(=O)[C@H](CC(C)C)NC(=O)CN)C(=O)NCC(=O)N1CCC[C@H]1C(=O)N[C@@H](C)C(=O)NCC(=O)N1CCC[C@H]1C(=O)N[C@@H](CCCCN)C(=O)O [GLPGPLGPAGPK]
MIC [1]: 1330 µM (≈ 1410 µg/mL)

SMILES: CC[C@H](C)[C@H](NC(=O)[C@H](C)N)C(=O)N[C@@H](Cc1c[nH]c2ccccc12)C(=O)N[C@@H](CCCN=C(N)N)C(=O)N[C@@H](CCCCN)C(=O)N[C@@H](C)C(=O)N[C@H](C(=O)N[C@@H](CCCN=C(N)N)C(=O)N[C@@H](CCCN=C(N)N)C(=O)N[C@@H](CC(C)C)C(=O)N[C@H](C(=O)N[C@@H](CCCCN)C(=O)N[C@@H](CC(C)C)C(=O)N[C@H](C(=O)N[C@H](C(N)=O)C(C)C)[C@@H](C)CC)C(C)C)[C@@H](C)O [AIWRKATRRLVKLIV]
MIC [5]: 12.5 µM (≈ 22.8 µg/mL)
MIC (Acinetobacter baumannii): 3.12 µM (≈ 5.69 µg/mL)
MIC [7]: 25 µM (≈ 45.6 µg/mL)
MIC [2]: 3 µM (≈ 5.47 µg/mL)
MIC [6]: 12 µM (≈ 21.9 µg/mL)

SMILES: CC(C)C[C@H](NC(=O)[C@H](C)NC(=O)[C@H](CC(C)C)NC(=O)[C@H](CC(C)C)NC(=O)[C@H](CCCCN)NC(=O)[C@H](CCCCN)NC(=O)[C@H](C)NC(=O)[C@H](CC(C)C)NC(=O)[C@H](CCCCN)NC(=O)[C@H](C)NC(=O)[C@H](CC(C)C)NC(=O)[C@H](CCCCN)NC(=O)[C@H](CCCCN)NC(=O)[C@H](C)NC(=O)[C@@H](N)Cc1ccccc1)C(N)=O [FAKKLAKLAKKLLAL]
MIC [1]: 3.02 µM (≈ 5 µg/mL)
MIC [2]: 30.2 µM (≈ 50 µg/mL)

SMILES: CC(C)C[C@H](NC(=O)[C@H](CC(C)C)NC(=O)CNC(=O)[C@H](CO)NC(=O)[C@H](CC(C)C)NC(=O)[C@H](CC(C)C)NC(=O)CNC(=O)[C@@H](NC(=O)[C@@H](NC(=O)[C@H](CC(C)C)NC(=O)[C@@H]1CCCN1C(=O)[C@H](CC(C)C)NC(=O)[C@@H](N)Cc1ccccc1)C(C)C)[C@@H](C)O)C(N)=O [FLPLVTGLLSGLL]
MIC [8]: ≥ 128 µM
MIC [6]: 64 µM (≈ 85.9 µg/mL)

SMILES: CC[C@H](C)[C@H](NC(=O)CNC(=O)[C@H](CO)NC(=O)[C@H](CC(C)C)NC(=O)[C@H](C)NC(=O)CNC(=O)[C@H](CC(C)C)NC(=O)[C@@H](NC(=O)[C@H](CC(C)C)NC(=O)[C@@H]1CCCN1C(=O)[C@H](CC(C)C)NC(=O)[C@@H](N)Cc1ccccc1)C(C)C)C(=O)N[C@@H](CC(C)C)C(=O)N1CCC[C@H]1C(=O)N[C@@H](CCCCN)C(=O)N[C@H](C(=O)N[C@@H](CC(C)C)C(N)=O)[C@@H](C)CC [FLPLVLGALSGILPKIL]
MIC [4]: 4.68 µM (≈ 8.26 µg/mL)
MIC (Bacillus subtilis): 5.32 µM (≈ 9.37 µg/mL)
MIC [6]: 2.66 µM (≈ 4.69 µg/mL)
MIC [9]: 2.66 µM (≈ 4.69 µg/mL)
MIC [10]: 2.66 µM (≈ 4.69 µg/mL)

SMILES: CC(C)C[C@H](NC(=O)[C@H](CC(C)C)NC(=O)[C@H](CCCCN)NC(=O)[C@H](CCCCN)NC(=O)[C@H](CC(C)C)NC(=O)[C@@H](NC(=O)[C@H](CCCCN)NC(=O)[C@H](CC(C)C)NC(=O)[C@@H](N)Cc1ccccc1)[C@@H](C)O)C(N)=O [FLKTLKKLL]
MIC [5]: 58 µM (≈ 63.9 µg/mL)
MIC [3]: 58 µM (≈ 63.9 µg/mL)
MIC [6]: 58 µM (≈ 63.9 µg/mL)
MIC [9]: 7.25 µM (≈ 7.99 µg/mL)

The remaining lines, values ahead:

MIC [4]: 1.75 µM (≈ 4.69 µg/mL)
MIC [5]: 1.75 µM (≈ 4.69 µg/mL)
MIC [6]: 28 µM (≈ 75 µg/mL)
SMILES: CC[C@H](C)[C@H](NC(=O)[C@@H](NC(=O)[C@@H](NC(=O)[C@@H]1CCCN1C(=O)[C@H](Cc1c[nH]c2ccccc12)NC(=O)[C@H](Cc1ccccc1)NC(=O)[C@H](CCCN=C(N)N)NC(=O)[C@H](CCCCN)NC(=O)[C@@H](NC(=O)[C@@H](N)CCCN=C(N)N)[C@@H](C)CC)C(C)C)C(C)C)C(=O)N[C@@H](CCCN=C(N)N)C(=O)N[C@H](C(=O)N[C@H](C(=O)N[C@H](C(=O)N[C@@H](C)C(=O)NCC(=O)N[C@@H](Cc1ccc(O)cc1)C(=O)N[C@@H](CC(N)=O)C(=O)N[C@@H](CC(C)C)C(=O)N[C@@H](Cc1ccc(O)cc1)C(=O)N[C@@H](CCCN=C(N)N)C(=O)N[C@@H](C)C(=O)O)C(C)C)C(C)C)[C@@H](C)O [RIKRFWPVVIRTVVAGYNLYRA]

MIC (Bacillus subtilis): ≥ 100 µM
MIC (Escherichia coli): 100 µM (≈ 137 µg/mL)
SMILES: CC[C@H](C)[C@H](NC(=O)[C@H](CO)NC(=O)[C@H](C)NC(=O)[C@@H](NC(=O)[C@@H](N)CCCCN)[C@@H](C)CC)C(=O)NCC(=O)N[C@@H](CCCCN)C(=O)N[C@@H](CCC(=O)O)C(=O)N[C@H](C(=O)N[C@@H](CC(C)C)C(=O)N[C@@H](CCCCN)C(=O)N[C@@H](C)C(=O)N[C@@H](CC(C)C)C(N)=O)C(C)C [KIASIGKEVLKAL]

MIC (Bacillus subtilis): 22.5 µM (≈ 36.7 µg/mL)
MIC (Escherichia coli): 100 µM (≈ 163 µg/mL)
SMILES: CC[C@H](C)[C@H](N)C(=O)N[C@@H](CC(N)=O)C(=O)N[C@@H](Cc1c[nH]c2ccccc12)C(=O)N[C@@H](CC(C)C)C(=O)N[C@@H](CCCCN)C(=O)N[C@@H](CC(C)C)C(=O)NCC(=O)N[C@@H](CCCCN)C(=O)N[C@@H](CCCCN)C(=O)N[C@@H](CCSC)C(=O)N[C@@H](CCSC)C(=O)N[C@@H](CO)C(=O)N[C@@H](C)C(=O)N[C@@H](CC(C)C)C(=O)O [INWLKLGKKMMSAL]

MIC (Bacillus subtilis): ≥ 45 µM
MIC (Escherichia coli): 8 µM (≈ 14.1 µg/mL)
SMILES: CC[C@H](C)[C@H](N)C(=O)N[C@@H](CC(N)=O)C(=O)N[C@@H](Cc1c[nH]c2ccccc12)C(=O)N[C@@H](CCCCN)C(=O)N[C@@H](CCCCN)C(=O)N[C@H](C(=O)N[C@@H](Cc1ccccc1)C(=O)N[C@@H](CCC(N)=O)C(=O)N[C@@H](CCCCN)C(=O)N[C@H](C(=O)N[C@@H](CCCCN)C(=O)N[C@@H](CC(N)=O)C(=O)N[C@@H](CC(C)C)C(=O)N[C@H](C(N)=O)C(C)C)C(C)C)[C@@H](C)CC [INWKKIFQKVKNLV]

MIC (Bacillus subtilis): 15.5 µM (≈ 24.5 µg/mL)
MIC (Escherichia coli): 43 µM (≈ 68 µg/mL)
SMILES: CC[C@H](C)[C@H](N)C(=O)N[C@@H](CC(N)=O)C(=O)N[C@@H](Cc1c[nH]c2ccccc12)C(=O)N[C@@H](CCCCN)C(=O)N[C@@H](CCCCN)C(=O)N[C@@H](CC(C)C)C(=O)NCC(=O)N[C@@H](CCCCN)C(=O)N[C@@H](CCCCN)C(=O)N[C@H](C(=O)N[C@@H](CC(C)C)C(=O)NCC(=O)N[C@@H](C)C(=O)N[C@@H](CC(C)C)C(N)=O)[C@@H](C)CC [INWKKLGKKILGAL]

MIC [8]: ≥ 200 µM
MIC [6]: > 200 µM
SMILES: CC[C@H](C)[C@@H]1NC(=O)[C@H](CCSC)NC(=O)[C@@H]2CCCN2C(=O)[C@@H]2CCCN2C(=O)[C@@H](NC(=O)[C@@H](N)Cc2c[nH]c3ccccc23)CSSC[C@@H](C(=O)N[C@@H](CO)C(=O)N[C@@H](CCCN=C(N)N)C(=O)N[C@@H](Cc2ccccc2)C(N)=O)NC(=O)[C@H](CC(C)C)NC(=O)[C@@H]2CCCN2C1=O [WCPPMIPLCSRF]

MIC [4]: 0.84 µM (≈ 2.34 µg/mL)
MIC [5]: 3.36 µM (≈ 9.38 µg/mL)
MIC (Bacillus subtilis): 13.4 µM (≈ 37.5 µg/mL)
MIC [6]: 13.4 µM (≈ 37.5 µg/mL)
SMILES: CC[C@H](C)[C@H](NC(=O)[C@H](C)NC(=O)[C@H](CCCN=C(N)N)NC(=O)[C@H](Cc1ccc(O)cc1)NC(=O)[C@H](CC(C)C)NC(=O)[C@H](CC(N)=O)NC(=O)[C@H](Cc1ccc(O)cc1)NC(=O)CNC(=O)[C@H](C)NC(=O)[C@@H](NC(=O)[C@@H](NC(=O)[C@@H](NC(=O)[C@H](CCCN=C(N)N)NC(=O)[C@@H](NC(=O)[C@@H](NC(=O)[C@@H](NC(=O)[C@@H]1CCCN1C(=O)[C@H](Cc1c[nH]c2ccccc12)NC(=O)[C@H](Cc1ccccc1)NC(=O)[C@H](CCCN=C(N)N)NC(=O)[C@H](CCCCN)NC(=O)[C@@H](NC(=O)[C@@H](N)CCCN=C(N)N)[C@@H](C)CC)C(C)C)C(C)C)[C@@H](C)CC)[C@@H](C)O)C(C)C)C(C)C)C(=O)O [RIKRFWPVVIRTVVAGYNLYRAI]

MIC (Bacillus subtilis): ≥ 200 µM
MIC [11]: ≥ 200 µM
MIC [6]: > 200 µM
MIC [9]: > 200 µM
SMILES: NCCCC[C@H](NC(=O)[C@H](Cc1c[nH]c2ccccc12)NC(=O)CN)C(=O)N[C@@H](CCCN=C(N)N)C(=O)N[C@@H](CCCCN)C(=O)N[C@@H](CCCN=C(N)N)C(=O)N[C@@H](Cc1ccccc1)C(=O)NCC(=O)O [GWKRKRFG]
